According to PMC2736202 (2009):

Key:
Test in all cases: electrospray mass spectrometry
[1] = test system: UpsB-Q-2 (DNA, G4) TAGGGTTAAGGGTATAACGTTAAGGGTTAGGGTT; details: NH4+ 150 mM (NH4OAc); 20% methanol; 10 μM DNA
[2] = test system: UpsB-Q-3 (DNA, G4) CAGGGTTAAGGGTATACATTTAGGGGTTAGGGTT; details: NH4+ 150 mM (NH4OAc); 20% methanol; 10 μM DNA
[3] = test system: UpsB-Q-4 (DNA, G4) CAGGGTTTAGGGTATAACTTTAGGGGTTAGGGTT; details: NH4+ 150 mM (NH4OAc); 20% methanol; 10 μM DNA
[4] = test system: UpsB-Q-1 (DNA, G4) CAGGGTTAAGGGTATAACTTTAGGGGTTAGGGTT; details: NH4+ 150 mM (NH4OAc); 20% methanol; 10 μM DNA, equimolar 10 μM BOQ1 in Figure 6B

In the case of `c1cc2nc3c4ccc5cc6cc(ccc6nc53)CNCCNCCNCc3ccc5nc6c(ccc7cc8cc(ccc8nc76)CNCCNCCNCc1cc2c4)cc5c3`, the Kd [1] is reported as 1.4 ± 0.4 µM, the Kd [2] is reported as 1.7 ± 0.7 µM and the Kd [3] is reported as 2.7 ± 1.1 µM. It also gave a Kd [4] of 2.6 ± 0.5 µM.
